Assay type in all cases: in vivo, Swiss Albino mice
For one experiment, the system named is IL-2. As to the kind of experiment: Serum IL-2 by ELISA after 28 days oral treatment with treadmill exercise training. On the procedure:
(§1) Sixteen 8-week-old male Swiss Albino mice were housed in an animal room at a constant temperature (22±3° C.) and humidity (30-70%) under a 12:12 h light-dark cycle with standard laboratory diet (Purina 5L79, Rat and Mouse 18% protein; PMI Nutrition International, Brentwood, MO, USA). Distilled water was provided ad libitum. All animal experiments were reviewed and approved by the Institutional Animal Ethical Committee (IAEC) of Radiant Research Services Pvt. Ltd. (Bangalore, India). All research was conducted in accordance with the guidelines of the committee for the purpose of control and supervision of experiments on animals.
(§2) After one week of acclimation, the animals were randomly divided by body weight into two groups (n=8 per group in each test) for oral treatment once a day, at approximately the same time each day (±1 h), for 28 consecutive days: (1) vehicle control; (2) paraxanthine. The dose administered to the mice was calculated using US Food and Drug Administration for human equivalence doses (HED), assuming a human weight of 60 kg. The following HED were used in this study: 100 mg paraxanthine, (ENFINITY™, Ingenious Ingredients, L.P Lewisville, TX, USA; mouse dose: 20.5 mg/kg bw/day).
(§3) During the treatment period, exercise training was completed using a motorized treadmill (Exer 3/6, Columbus Instruments international, Columbus, OH, USA) at a moderate intensity of 20 cm/sec as maximal running speed, an incline of 10 degrees and a shock intensity of 0.2 mA, for 10 min. The speed of the treadmill was manually adjusted by increasing the belt speed by 5 cm/sec every 2 min throughout the total duration of 10 min. All animals were adapted to this procedure daily 60 min after dosing for 5 days in a week during the treatment period.
(§4) On 29th day, blood was collected from retro-orbital route for biochemical analysis. IL-2, IL-6, IL-10, assay was done by using standard ELISA assay kit method. The Tfh,/iTreg assay was done by using flow cytometry method.
In general terms: In an ELISA, binding on a coated surface is turned into a signal by an enzyme label.

The test system of a further experiment is IL-6. As to the kind of experiment: Serum IL-6 by ELISA after 28 days oral treatment with treadmill exercise training. On the procedure: as §1, §2, §3, §4
The subject of the next experiment is IL-10. As to the kind of experiment: Serum IL-10 by ELISA after 28 days oral treatment with treadmill exercise training. The protocol: as §1, §2, §3, §4
Another experiment relates to C-reactive protein (CRP). Briefly: Blood C-reactive protein after 28 days oral treatment with treadmill exercise training. The protocol: as §1, §2, §3, §4
A further experiment deals with Th1. Briefly: Th1 cells by flow cytometry after 28 days oral treatment. On the procedure: as §1
(§5) After one week of acclimation, the animals were randomly divided by body weight into two groups (n=8 per group in each test) for oral treatment once a day, at approximately the same time each day (±1 h), for 28 consecutive days: (1) vehicle control; (2) paraxanthine. The dose administered to the mice was calculated using US Food and Drug Administration for human equivalence doses (HED), assuming a human weight of 60 kg. The following HED were used in this study: 100 mg paraxanthine, (ENFINITY™, Ingenious Ingredients, L.P Lewisville, TX, USA; mouse dose: 20.5 mg/kg bw/day). […]
In general terms: A flow cytometer gives signals particle by particle.

A further experiment deals with Th2. As to the kind of experiment: Th2 cells by flow cytometry after 28 days oral treatment. The protocol:
as §1, §5

The test system of the next experiment is Th17. As to the kind of experiment: Th17 cells by flow cytometry after 28 days oral treatment. The protocol: as §1, §5
Another experiment has as its system Tfh. Briefly: Tfh cells by flow cytometry after 28 days oral treatment. The protocol:
as §1, §5

For another experiment, the system named is iTreg. Briefly: iTreg cells by flow cytometry after 28 days oral treatment. The protocol: as §1, §5
Where [1] appears, read: mice, 28 days oral, versus control.

As to `Cn1c(=O)[nH]c2ncn(C)c2c1=O` [Paraxanthine, 1,7-dimethyl-3H-purine-2,6-dione], the “Delta IL-2” value in the experiment on IL-2 (change versus control, day 29) is listed as “+23.1%”. In addition, the “effect on IL-2 (in words)” value in the experiment on IL-2 (setting [1]) is reported as “increased”. Further, in the experiment with IL-2 (mice, oral once daily 28 days (paraxanthine 20.5 mg/kg bw/day), blood on day 29, control 37.29 ± 1.88), the “IL-2 (ng/L) Adaptive Immunity” value worked out at 45.91 ± 2.68 ng/L. Also, the “Delta IL-6” value in the experiment with IL-6 (change versus control, day 29) is listed as −7.7%. Moreover, the “effect on pro-inflammatory cytokine IL-6 (in words)” value in the experiment on IL-6 (setting [1]) is listed as “reduced”. In addition, the “IL-6 (pg/ml) Pro-inflammatory” value in the experiment on IL-6 (mice, oral once daily 28 days (paraxanthine 20.5 mg/kg bw/day), blood on day 29, control 369.04 ± 13) was found to be 340.6 ± 13.6 pg/mL. The “Delta IL-10” value in the experiment on IL-10 (change versus control, day 29) was “+8.3%”. Further, the “effect on anti-inflammatory cytokine IL-10 (in words)” value in the experiment on IL-10 (setting [1]) was “increased”. Further, in the experiment with IL-10 (mice, oral once daily 28 days (paraxanthine 20.5 mg/kg bw/day), blood on day 29, control 527.86 ± 9.22), the “IL-10 (pg/ml) Anti-inflammatory” value amounted to 571.71 ± 16.43 pg/mL. In addition, the “Delta CRP” value in the experiment on C-reactive protein (CRP) (change versus control, day 29) is on record as −18.3%. Also, the “effect on C-reactive protein (CRP) (in words)” value in the experiment with C-reactive protein (CRP) (setting [1]) is listed as “reduced”. Moreover, the “CRP (mg/L) Inflammation” value in the experiment with C-reactive protein (CRP) (mice, oral once daily 28 days (paraxanthine 20.5 mg/kg bw/day), blood on day 29, control 0.77 ± 0.09) is recorded as 0.64 ± 0.07 mg/L. For the same molecule, the “Delta Th1” value with Th1 (change versus control, day 29) is given as −29.8%. The “Th1 (%)” value with Th1 (mice, oral 20.5 mg/kg bw/day 28 days, blood on day 29, control 93.54 ± 2.82) was found to be 65.68 ± 3.98 %. Besides, in the experiment with Th2 (change versus control, day 29), the “Delta Th2” value is listed as “+368.0%”. Besides, in the experiment on Th2 (mice, oral 20.5 mg/kg bw/day 28 days, blood on day 29, control 11.46 ± 3.16), the “Th2 (%)” value amounted to 53.63 ± 3.85 %. Also, the “Delta Th17” value with Th17 (change versus control, day 29) was “+758.4%”. The “Th17 (%)” value in the experiment with Th17 (mice, oral 20.5 mg/kg bw/day 28 days, blood on day 29, control 3.65 ± 0.85) is reported as 31.33 ± 1.31 %. Moreover, the “Delta Tfh” value in the experiment on Tfh (change versus control, day 29) is “+602.8%”. The “Tfh (%)” value in the experiment with Tfh (mice, oral 20.5 mg/kg bw/day 28 days, blood on day 29, control 7.82 ± 1.04) came out at 54.96 ± 4.44 %. Also, the “Delta iTreg” value in the experiment on iTreg (change versus control, day 29) is −56.5%. The “iTreg (%)” value with iTreg (mice, oral 20.5 mg/kg bw/day 28 days, blood on day 29, control 54.47 ± 4.2) was determined as 23.68 ± 2.62 %.

The values are drawn from US20240033269A1, “PPARAXANTHINE-BASED COMPOSITIONS FOR INHIBITING INFLAMMATION, IMPROVING JOINT HEALTH, AND ENHANCING IMMUNE FUNCTION” (PX ING, LLC, priority 2022, published 2024).
